How the values were obtained:
[1] = system: velvetleaf; assay: Test B pre/postemergence velvetleaf; type: in vivo, Abutilon theophrasti
Method in brief: (§1)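 Test chemicals in a non-phytotoxic solvent mixture with surfactant were sprayed preemergence onto planted seeds and postemergence onto plants 2 to 18 cm tall (1- to 4-leaf stage). After twelve to sixteen days in a greenhouse, injury was visually rated against untreated controls from 0 (no effect) to 10 (complete control).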

[2] = system: pigweed; assay: Test B pre/postemergence pigweed; type: in vivo, Amaranthus retroflexus; conditions: for Plant response rating, Redroot pigweed: scale of 0 to 10 where 0 is no effect and 10 is complete control
Method in brief: as §1

[3] = system: blackgrass; assay: Test B pre/postemergence blackgrass; type: in vivo, Alopecurus myosuroides
Method in brief: as §1

[4] = system: wheat; assay: Test B pre/postemergence wheat; type: in vivo, Triticum aestivum; conditions: for Plant response rating, Wheat: scale of 0 to 10 where 0 is no effect and 10 is complete control
Method in brief: as §1

[5] = system: morningglory; assay: Test B pre/postemergence morningglory; type: in vivo, Ipomoea hederacea; conditions: for Plant response rating, Morningglory: scale of 0 to 10 where 0 is no effect and 10 is complete control
Method in brief: as §1

[6] = system: duck salad; assay: Test B flood test duck salad; type: in vivo, Heteranthera limosa
Method in brief: (§2)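 Each value is a visual injury score relative to controls, with 10 meaning complete control and 0 no effect. Evaluation took place twelve to sixteen days after the 2-leaf-stage plants were treated and kept in the greenhouse.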

[7] = system: rice; assay: Test B flood test rice; type: in vivo, Oryza sativa
Method in brief: as §2

[8] = system: giant foxtail; assay: Test B pre/postemergence giant foxtail; type: in vivo, Setaria faberii
Method in brief: as §1

[9] = system: corn; assay: Test B pre/postemergence corn; type: in vivo, Zea mays
Method in brief: as §1

[10] = system: rape; assay: Test B pre/postemergence rape; type: in vivo, Brassica napus; conditions: for Plant response rating, Rape: scale of 0 to 10 where 0 is no effect and 10 is complete control
Method in brief: as §1

[11] = Preemergence, Rate 250 g/ha, scale 0 to 10, 0 is no effect, 10 is complete control
[12] = Preemergence, Rate 500 g/ha, scale 0 to 10, 0 is no effect, 10 is complete control
[13] = Rate 62 g/ha, Postemergence, scale 0 to 10 (0 no effect, 10 complete control)
[14] = Rate 125 g/ha, Postemergence, scale 0 to 10, 0 is no effect, 10 is complete control
[15] = Postemergence, Rate 250 g/ha, scale 0 to 10
[16] = Postemergence, Rate 500 g/ha, scale of 0 to 10 where 0 is no effect and 10 is complete control
[17] = Preemergence, Rate 62 g/ha, scale of 0 to 10 where 0 is no effect and 10 is complete control
[18] = Preemergence, Rate 125 g/ha, scale of 0 to 10 where 0 is no effect and 10 is complete control
[19] = Rate 62 g/ha, flood test species, Pre-emergence, visual evaluation after twelve to sixteen days
[20] = Rate 125 g/ha, under heading Pre-emergence, flood test species, visual evaluation after twelve to sixteen days
[21] = Rate 250 g/ha, Pre-emergence (flood test species), scale 0 to 10, 0 is no effect, 10 is complete control
[22] = Rate 500 g/ha, Pre-emergence, flood test species, scale 0 to 10 (0 no effect, 10 complete control)

COC(CCl)n1c(=O)on(C(=O)N(c2ccc(Cl)cc2)C(C)C)c1=O (stereo not shown) [Compound 458]
Velvetleaf plant response rating [1, 11]: 2
Velvetleaf plant response rating [1, 12]: 6
Velvetleaf plant response rating [1, 13]: 0
Velvetleaf plant response rating [1, 14]: 0
Redroot pigweed plant response rating [2, 15]: 0
Plant response rating, Redroot pigweed ([2]; Preemergence, Rate 62 g/ha): 0
Plant response rating, Redroot pigweed ([2]; Preemergence, Rate 125 g/ha): 3
Redroot pigweed plant response rating [2, 11]: 6
Redroot pigweed plant response rating [2, 12]: 8
Redroot pigweed plant response rating [2, 13]: 0
Redroot pigweed plant response rating [2, 14]: 0
Blackgrass plant response rating [3, 15]: 8
Blackgrass plant response rating [3, 16]: 8
Plant response rating, Blackgrass [3, 17]: 6
Plant response rating, Blackgrass [3, 18]: 8
Blackgrass plant response rating [3, 11]: 8
Blackgrass plant response rating [3, 12]: 9
Blackgrass plant response rating [3, 13]: 0
Blackgrass plant response rating [3, 14]: 3
Wheat plant response rating [4, 15]: 2
Plant response rating, Wheat ([4]; Preemergence, Rate 62 g/ha): 0
Plant response rating, Wheat ([4]; Preemergence, Rate 125 g/ha): 0
Wheat plant response rating [4, 11]: 0
Wheat plant response rating [4, 12]: 2
Wheat plant response rating [4, 13]: 0
Wheat plant response rating [4, 14]: 0
Morningglory plant response rating [5, 15]: 3
Plant response rating, Morningglory ([5]; Preemergence, Rate 62 g/ha): 0
Plant response rating, Morningglory ([5]; Preemergence, Rate 125 g/ha): 0
Morningglory plant response rating [5, 11]: 0
Morningglory plant response rating [5, 12]: 0
Morningglory plant response rating [5, 13]: 0
Morningglory plant response rating [5, 14]: 0
Plant response rating, Ducksalad (0 to 10 scale, 0 is no effect, 10 is complete control) [6, 19]: 0
Ducksalad plant response rating (0 to 10 scale, 0 is no effect, 10 is complete control) [6, 20]: 0
Ducksalad plant response rating [6, 21]: 0
Ducksalad plant response rating [6, 22]: 0
Plant response rating, Rice (0 to 10 scale, 0 is no effect, 10 is complete control) [7, 19]: 0
Rice plant response rating (0 to 10 scale, 0 is no effect, 10 is complete control) [7, 20]: 0
Rice plant response rating [7, 21]: 0
Rice plant response rating [7, 22]: 0
Giant foxtail plant response rating [8, 15]: 9
Giant foxtail plant response rating [8, 16]: 9
Plant response rating, Giant foxtail [8, 17]: 9
Plant response rating, Giant foxtail [8, 18]: 9
Giant foxtail plant response rating [8, 11]: 10
Giant foxtail plant response rating [8, 12]: 10
Giant foxtail plant response rating [8, 13]: 7
Giant foxtail plant response rating [8, 14]: 9
Corn plant response rating [9, 15]: 2
Corn plant response rating [9, 16]: 2
Plant response rating, Corn [9, 17]: 0
Plant response rating, Corn [9, 18]: 0
Corn plant response rating [9, 11]: 0
Corn plant response rating [9, 12]: 3
Corn plant response rating [9, 13]: 0
Corn plant response rating [9, 14]: 0
Rape plant response rating [10, 15]: 0
Plant response rating, Rape ([10]; Preemergence, Rate 62 g/ha): 0
Plant response rating, Rape ([10]; Preemergence, Rate 125 g/ha): 0
Rape plant response rating [10, 11]: 3
Rape plant response rating [10, 12]: 4
Rape plant response rating [10, 13]: 0
Rape plant response rating [10, 14]: 0
